Results as given in patent US20240228555A9, “ANTIMICROBIAL PEPTIDOMIMETICS” (Basilea Pharmaceutica International AG, Allschwil, priority 2020, published 2024).
Where a SMILES comes first, the peptide text is derived from it. Bridges are numbered along the chain shown (N, C = ends). [ ]: non-standard residue; d: D form. Orn(iPr) = CC(C)NCCC[C@H](N)C(=O)O; Dab(iPr) = CC(C)NCC[C@H](N)C(=O)O; Hyp = O=C(O)[C@@H]1C[C@@H](O)CN1; Pen = CC(C)(S)[C@H](N)C(=O)O; dDab = NCC[C@@H](N)C(=O)O; Dab = NCC[C@H](N)C(=O)O

Columns and labels:
[1] = test system: Escherichia coli MCR-1 Af 45; conditions: Mueller-Hinton broth II, no visible growth after 18-20 hours at 35° C.
How it was run: (§1)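 Broth microdilution; cation-adjusted MHII; inoculum ~5×10^5 CFU/mL from 0.5 McFarland saline suspension; peptide two-fold serial dilutions; polysorbate 80 0.002% final; peptide stock 1 mg/mL in water.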

[2] = test system: Klebsiella pneumoniae SSI3010; conditions: SSI3010
How it was run: as §1

[3] = test system: Escherichia coli ATCC 25922; conditions: ATCC 25922
How it was run: as §1

[4] = test system: human red blood cells (hRBC); format: cell-based; conditions: red cells of human, 1 h, 0.2 g/L
How it was run: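 PBS-washed human erythrocytes (20% v/v) were incubated with compounds at 200 μg/mL for 1 h at 37° C with shaking. Supernatant OD540 was read after 8-fold dilution; hemolysis % = OD540 peptide / OD540 of the 100% lysis control (2.5% Triton X-100 in H2O) ×100, with PBS as 0%.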

| Compound | Escherichia coli MCR-1 Af 45 MIC [1] [µg/mL] | Klebsiella pneumoniae SSI3010 MIC [2] [µg/mL] | Escherichia coli ATCC 25922 MIC [3] [µg/mL] | Hemolysis at 0.2 g/L [4] [%] |
| --- | --- | --- | --- | --- |
| CC[C@H](C)[C@H](NC(=O)[C@@H]1C=CCN1C(=O)[C@@H](N)C(C)C)C(=O)N[C@H](C(=O)N[C@@H](Cc1ccc(O)cc1)C(=O)N[C@@H]1C(=O)N[C@@H](CC(N)=O)C(=O)N[C@@H](CCCNC(=N)N)C(=O)N[C@@H](CCN)C(=O)N[C@@H]([C@@H](C)O)C(=O)N[C@H](CCN)C(=O)N[C@@H](CCCCN)C(=O)N[C@H](C(=O)N[C@@H](CCN)C(=O)N[C@@H](CCCNC(=N)N)C(=O)N[C@@H](Cc2ccc(O)cc2)C(=O)O)CSSC1(C)C)[C@@H](C)O [Example 128, Val-Pro(3,4dehydro)-Ile-Thr-Tyr-Pen-Asn-Arg-Dab-Thr-^DDab-Lys-Cys-Dab-Arg-Tyr] (HELM PEPTIDE1{V.[O=C([C@@H]1C=CCN1[*:1])[*:2]].I.T.Y.[Pen].N.R.[Dab].T.[NCC[C@@H](N[*:1])C(=O)[*:2]].K.C.[Dab].R.Y}$PEPTIDE1,PEPTIDE1,6:R3-13:R3$$$V2.0) | 0.125 | 0.25 | 0.125 | <1 |
| CC[C@H](C)[C@H](NC(=O)[C@@H]1C[C@@H](Oc2ccccc2)CN1C(=O)[C@@H](N)C(C)C)C(=O)N[C@H](C(=O)N[C@@H](Cc1ccc(O)cc1)C(=O)N[C@@H]1C(=O)N[C@@H](CC(N)=O)C(=O)N[C@@H](CCCNC(=N)N)C(=O)N[C@@H](CCN)C(=O)N[C@@H]([C@@H](C)O)C(=O)N[C@H](CCN)C(=O)N[C@@H](CCCCN)C(=O)N[C@H](C(=O)N[C@@H](CCN)C(=O)N[C@@H](CCCNC(=N)N)C(=O)N[C@@H](Cc2ccc(O)cc2)C(=O)O)CSSC1(C)C)[C@@H](C)O [Example 129, Val-Pro(4,4F2)-Ile-Thr-Tyr-Pen-Asn-Arg-Dab-Thr-^DDab-Lys-Cys-Dab-Arg-Tyr] (HELM PEPTIDE1{V.[O=C([C@@H]1C[C@@H](Oc2ccccc2)CN1[*:1])[*:2]].I.T.Y.[Pen].N.R.[Dab].T.[NCC[C@@H](N[*:1])C(=O)[*:2]].K.C.[Dab].R.Y}$PEPTIDE1,PEPTIDE1,6:R3-13:R3$$$V2.0) | 0.0625 | 0.5 | 0.125 | <1 |
| CC[C@H](C)[C@H](NC(=O)[C@@H]1C[C@@H](OC)CN1C(=O)[C@@H](N)C(C)C)C(=O)N[C@H](C(=O)N[C@@H](Cc1ccc(O)cc1)C(=O)N[C@@H]1C(=O)N[C@@H](CC(N)=O)C(=O)N[C@@H](CCCNC(=N)N)C(=O)N[C@@H](CCN)C(=O)N[C@@H]([C@@H](C)O)C(=O)N[C@H](CCN)C(=O)N[C@@H](CCCCN)C(=O)N[C@H](C(=O)N[C@@H](CCN)C(=O)N[C@@H](CCCNC(=N)N)C(=O)N[C@@H](Cc2ccc(O)cc2)C(=O)O)CSSC1(C)C)[C@@H](C)O [Example 130, Val-Pro((4R)OPh)-Ile-Thr-Tyr-Pen-Asn-Arg-Dab-Thr-^DDab-Lys-Cys-Dab-Arg-Tyr] (H-V[Hyp](Me)ITY[Pen]NR[Dab]T[dDab]KC[Dab]RY-OH; disulfide 6-13) | 0.125 | 0.25 | 0.125 | <1 |
| CC[C@H](C)[C@H](NC(=O)[C@@H]1C[C@@H](F)CN1C(=O)[C@@H](N)C(C)C)C(=O)N[C@H](C(=O)N[C@@H](Cc1ccc(O)cc1)C(=O)N[C@@H]1C(=O)N[C@@H](CC(N)=O)C(=O)N[C@@H](CCCNC(=N)N)C(=O)N[C@@H](CCN)C(=O)N[C@@H]([C@@H](C)O)C(=O)N[C@H](CCN)C(=O)N[C@@H](CCCCN)C(=O)N[C@H](C(=O)N[C@@H](CCN)C(=O)N[C@@H](CCCNC(=N)N)C(=O)N[C@@H](Cc2ccc(O)cc2)C(=O)O)CSSC1(C)C)[C@@H](C)O [Example 131, Val-Pro((4R)F)-Ile-Thr-Tyr-Pen-Asn-Arg-Dab-Thr-^DDab-Lys-Cys-Dab-Arg-Tyr] (HELM PEPTIDE1{V.[O=C([C@@H]1C[C@@H](F)CN1[*:1])[*:2]].I.T.Y.[Pen].N.R.[Dab].T.[NCC[C@@H](N[*:1])C(=O)[*:2]].K.C.[Dab].R.Y}$PEPTIDE1,PEPTIDE1,6:R3-13:R3$$$V2.0) | 0.125 | 0.5 | 0.25 | <1 |
| CC[C@H](C)[C@H](NC(=O)[C@@H]1CCCCN1C(=O)[C@@H](N)C(C)C)C(=O)N[C@H](C(=O)N[C@@H](Cc1ccc(O)cc1)C(=O)N[C@@H]1C(=O)N[C@@H](CC(N)=O)C(=O)N[C@@H](CCCNC(=N)N)C(=O)N[C@@H](CCN)C(=O)N[C@@H]([C@@H](C)O)C(=O)N[C@H](CCN)C(=O)N[C@@H](CCCCN)C(=O)N[C@H](C(=O)N[C@@H](CCN)C(=O)N[C@@H](CCCNC(=N)N)C(=O)N[C@@H](Cc2ccc(O)cc2)C(=O)O)CSSC1(C)C)[C@@H](C)O [Example 132, Val-Pic-Ile-Thr-Tyr-Pen-Asn-Arg-Dab-Thr-^DDab-Lys-Cys-Dab-Arg-Tyr] (HELM PEPTIDE1{V.[O=C([C@@H]1CCCCN1[*:1])[*:2]].I.T.Y.[Pen].N.R.[Dab].T.[NCC[C@@H](N[*:1])C(=O)[*:2]].K.C.[Dab].R.Y}$PEPTIDE1,PEPTIDE1,6:R3-13:R3$$$V2.0) | 0.125 | 0.25 | 0.125 | <1 |
| CC[C@H](C)[C@H](NC(=O)[C@@H]1C[C@@H](O)CN1C(=O)[C@@H](N)C(C)C)C(=O)N[C@H](C(=O)N[C@@H](Cc1ccc(O)cc1)C(=O)N[C@@H]1C(=O)N[C@@H](CC(N)=O)C(=O)N[C@@H](CCCNC(=N)N)C(=O)N[C@@H](CCNC(C)C)C(=O)N[C@@H]([C@@H](C)O)C(=O)N[C@H](CCN)C(=O)N[C@@H](CCCCN)C(=O)N[C@H](C(=O)N[C@@H](CCN)C(=O)N[C@@H](CCCNC(C)C)C(=O)N[C@@H](Cc2ccc(O)cc2)C(=O)O)CSSC1(C)C)[C@@H](C)O [Example 134, Hyp-Ile-Thr-Tyr-Pen-Asn-Arg-Dab(iPr)-Thr-^DDab-Lys-Cys-Dab-Orn(iPr)-Tyr] (H-V[Hyp]ITY[Pen]NR[Dab(iPr)]T[dDab]KC[Dab][Orn(iPr)]Y-OH; disulfide 6-13) | 0.25 | 0.5 | 0.125 | 1 |
| CC[C@H](C)[C@H](NC(=O)[C@@H]1C[C@@H](O)CN1C(=O)[C@@H](N)C(C)C)C(=O)N[C@H](C(=O)N[C@@H](Cc1ccc(O)cc1)C(=O)N[C@@H]1C(=O)N[C@@H](CC(N)=O)C(=O)N[C@@H](CCCNC(=N)N)C(=O)N[C@@H](CCNC(C)C)C(=O)N[C@@H]([C@@H](C)O)C(=O)N[C@H](CCN)C(=O)N[C@@H](CCCCN)C(=O)N[C@H](C(=O)N[C@@H](CCNC(C)C)C(=O)N[C@@H](CCCNC(=N)N)C(=O)N[C@@H](Cc2ccc(O)cc2)C(=O)O)CSSC1(C)C)[C@@H](C)O [Example 135, Hyp-Ile-Thr-Tyr-Pen-Asn-Arg-Dab(iPr)-Thr-^DDab-Lys-Cys-Dab(iPr)-Arg-Tyr] (H-V[Hyp]ITY[Pen]NR[Dab(iPr)]T[dDab]KC[Dab(iPr)]RY-OH; disulfide 6-13) | 0.25 | 0.5 | 0.25 | <1 |
